According to patent US20190275087A1, “EXPANSION AND DIFFERENTIATION OF STEM CELLS” (Allergan Pharmaceuticals International Limited, priority 2018, published 2019):
One block for each compound: values may come before it.

Key:
MSCs [1] = assay: Flow cytometry of MSC surface marker expression; assay type: cell-based, Human; conditions: bare TCP, media with only this growth factor, 7 days post-seeding
Procedure: MSCs cultured for 5 or 7 days in various media formulations and on bare or protein-coated tissue culture wells were trypsinised and pelleted. The cell pellets were washed with 0.22 μm filtered FACS buffer (5% v/v FBS in PBS) and re-centrifuged at 270 g for 5 min. The cells were resuspended in FACS buffer to a concentration of 100,000 cells in 100 μL total volume, and probed for MSC marker expression using the Human Mesenchymal Stem Cell Verification Flow Kit (R&D Systems®). Isotype and unstained control samples were prepared using MSCs cultured in standard growth media on tissue culture plastic. Cells were analyzed using a BD™ Biosciences LSR II Flow Cytometer System. Singlet cells were determined by their forward scatter-to-side scatter and scatter height-to-width ratios, while viable cells were identified by exclusion of 1:20 propidium iodide. Only singlet, viable cells were analyzed for marker expression.

MSCs [2] = assay: MSC proliferation with integrin, FGFR, FAK and PKB/AKT inhibitors; assay type: cell-based, Human; conditions: for reduction of tropoelastin-mediated proliferation: downstream signaling inhibitor, 7 days
Procedure: (§1) Sub-confluent flasks of MSCs were treated with 0.05% (v/v) trypsin-EDTA (Sigma-Aldrich®) at 37° C. for 5 min to lift off adherent cells from the culture vessel. Trypsin was neutralized with two volumes of serum-containing growth media. Cells were centrifuged at 270 g for 5 min and resuspended in the required media. Cells were seeded at a density of 5000 cells/cm^2 on bare or protein-coated tissue culture plastic wells, in normal or supplemented media. Media was changed every 2 days. After specific time points, cells were fixed with 3% (v/v) formaldehyde at room temperature for 20 min, washed with PBS, then stained with 0.1% (w/v) crystal violet in 0.2 M MES buffer for 1 hour. Excess stain was washed off four times with reverse osmosis water. The retained stain was solubilized with 10% (v/v) acetic acid and sample absorbance values indicative of cell abundance were read at 570 nm. Sample absorbance values were subtracted by baseline values (corresponding to cell numbers in serum-free media, or cell numbers on day 1 post-seeding) and expressed as a fraction of the highest absorbance among all samples on day 7 post-seeding.
To block specific integrin activity, up to 20 μg/mL of anti-αv or anti-αvβ3 integrin antibodies (Abcam®), or up to 1:250 dilution of anti-αvβ5 integrin antibody (Abcam®) was added to the media during MSC spreading or proliferation assays. […] An anti-β8 integrin (5 μg/mL) (Abcam®) or a non-specific mouse IgG (5 μg/mL) (Sigma-Aldrich®) were also included as negative antibody controls. […] The integrin and FGFR inhibitors were replenished during every media change.

integrins on MSCs = assay: cell-based or functional assay
MSCs [3] = assay: MSC attachment to substrate-bound tropoelastin (EDTA inhibition, cation add-back); assay type: cell-based, Human; conditions: 5 mM
Procedure: MSCs were seeded at a density of 1.5×10^5 cells/cm^2 on tropoelastin-coated wells in serum-free α-MEM containing 0-9 mM ethylenediaminetetraacetic acid (EDTA) (Sigma-Aldrich®). The cells were incubated for 1 hour at 37° C., then washed with PBS to remove unbound cells. Bound cells were fixed, stained and measured for absorbance at 570 nm as described for the proliferation assays. The percentage of cell attachment was determined relative to a set of standards with known cell numbers.
MSCs were washed with cation-free PBS, centrifuged at 270 g for 5 min, and resuspended in cation-free PBS. The cells were seeded at a density of 1.5×10^5 cells/cm^2 on tropoelastin-coated wells in the presence of 0-0.5 mM cation (Mg^2+, Ca^2+ or Mn^2+) and incubated for 45 min at 37° C. Bound cells were fixed and stained, and cell attachment was quantified as previously described.

[4] = tested on: Human bone marrow-derived MSCs; assay: MSC proliferation (crystal violet cell abundance); assay type: cell-based
Procedure: Human bone marrow-derived MSCs obtained from American Type Culture Collection (ATCC) were cultured in normal media, which consists of Alpha-Minimum Essential Medium (α-MEM) (Lonza) with 10% (v/v) FBS (Life Technologies) and 2.4 mM L-glutamine (Lonza), at 37° C. in a humidified normoxic incubator up to a maximum of 10 population doublings. Where indicated, the normal media was supplemented with 15 ng/mL IGF-1 (Life Technologies) and/or […] bFGF (Life Technologies), equivalent to the growth factor concentrations in the ATCC-recommended media. Cells were passaged once they reach 70-80% confluence.
Where indicated, tissue culture plastic wells were coated with 20 μg/mL recombinant human tropoelastin (Elastagen) or 2 μg/mL fibronectin (Sigma-Aldrich®) in PBS (10 mM phosphate, 150 mM NaCl, pH 7.4) at 4° C. overnight. The protein solution was removed, and wells were washed three times with PBS to remove unbound protein prior to cell seeding.
[…] To prevent protein adhesion on the tissue culture substrate, wells were pre-incubated with normal media for 5 hours to enable surface blocking by serum proteins prior to cell seeding in supplemented media.
as §1

MSCs [5] = assay: MSC spreading with integrin-blocking antibodies; assay type: cell-based, Human; conditions: no antibody
Procedure: Cells were fixed and visualized by phase contrast microscopy with a Zeiss Axio Vert.A1 microscope. Images were taken on an AxioCam ICml monochrome camera. […] Cell spreading was quantified by counting the percentage of spread cells in each field of view. Three fields of view were obtained for each sample replicate.
To block specific integrin activity, up to 20 μg/mL of anti-αv or anti-αvβ3 integrin antibodies (Abcam®), or up to 1:250 dilution of anti-αvβ5 integrin antibody (Abcam®) was added to the media during MSC spreading or proliferation assays. Optimal inhibitory concentrations were selected for the anti-αv (5 μg/mL), anti-αvβ3 (5 μg/mL), and anti-αvβ5 (1:500 dilution) integrin antibodies. An anti-β8 integrin (5 μg/mL) (Abcam®) or a non-specific mouse IgG (5 μg/mL) (Sigma-Aldrich®) were also included as negative antibody controls. To block FGFR activity, up to 20 μM of the SU-5402 FGFR inhibitor (Sigma-Aldrich®) was added to the media during MSC proliferation. The integrin and FGFR inhibitors were replenished during every media change.

recombinant human tropoelastin (Elastagen), sequence (P15502 other isoform, or with tags, fused parts or gaps limits assumed): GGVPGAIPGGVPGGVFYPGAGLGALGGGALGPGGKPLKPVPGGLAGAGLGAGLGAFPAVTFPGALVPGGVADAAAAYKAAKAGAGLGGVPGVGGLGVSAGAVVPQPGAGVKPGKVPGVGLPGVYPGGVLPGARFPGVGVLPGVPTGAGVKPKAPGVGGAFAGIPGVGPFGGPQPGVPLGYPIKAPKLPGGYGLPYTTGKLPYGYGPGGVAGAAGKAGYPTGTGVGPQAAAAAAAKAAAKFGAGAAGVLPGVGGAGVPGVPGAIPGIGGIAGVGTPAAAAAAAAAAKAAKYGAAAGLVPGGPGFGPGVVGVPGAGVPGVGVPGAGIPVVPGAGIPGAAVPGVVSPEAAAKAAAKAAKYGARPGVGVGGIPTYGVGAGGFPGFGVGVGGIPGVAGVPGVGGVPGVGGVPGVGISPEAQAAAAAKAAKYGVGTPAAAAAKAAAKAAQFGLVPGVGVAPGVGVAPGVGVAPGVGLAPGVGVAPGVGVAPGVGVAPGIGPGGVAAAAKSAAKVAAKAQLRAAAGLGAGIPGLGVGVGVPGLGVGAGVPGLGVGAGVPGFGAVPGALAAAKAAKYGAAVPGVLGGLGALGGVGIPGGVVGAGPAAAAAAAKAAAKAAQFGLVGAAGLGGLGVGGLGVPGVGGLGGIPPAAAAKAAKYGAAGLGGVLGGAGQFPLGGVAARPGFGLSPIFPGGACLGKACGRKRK

Compound: bFGF: basic fibroblast growth factor (Life Technologies), media supplement [reference compound]
cells positive for CD105 (MSCs [1]): 92.9±5.9%

Compound: Cc1c[nH]c(/C=C2\C(=O)Nc3ccccc32)c1CCC(=O)O [SU-5402]
reduction in overall cell numbers compared to no inhibitor control (MSCs [2]; bFGF-supplemented media, over 7 days): ≤ 78.9±0.7%

MSC adhesion to tropoelastin after addition of up to 0.5 mM Ca2+ (integrins on MSCs): 13.7%
MSC adhesion to tropoelastin after addition of up to 0.5 mM Mg2+ (integrins on MSCs): 51.8%
MSC adhesion to tropoelastin after addition of up to 0.5 mM Mn2+ (integrins on MSCs): 76.1%
MSC adhesion to tropoelastin in a cation-free environment (integrins on MSCs): 20%
reduction of MSC attachment to substrate-bound tropoelastin in the presence of 5 mM EDTA (integrins on MSCs): 48.9%
Compound: recombinant human tropoelastin (Elastagen) (from UniProt P15502 27-724) (ligand)

Compound: CCCCCCCCCCCCCCCCCCOP(=O)([O-])OC1CC[N+](C)(C)CC1 [perifosine]
reduction of tropoelastin-mediated proliferation (MSCs [2]): 21.3±0.5%

Compound: O=C(O)CN(CCN(CC(=O)O)CC(=O)O)CC(=O)O [EDTA, ethylenediaminetetraacetic acid, reference compound]
reduction of MSC binding to tropoelastin (MSCs [3]): 48.9±0.5%

Compound: Nc1cc(N)c(N)cc1N [FAK inhibitor 14]
reduction of tropoelastin-mediated proliferation (MSCs [2]): 50.7±2.0%

Compound: fibronectin [reference compound]
decrease in MSC proliferation on coated surface following serum reduction ([4]; 20% reduction in serum, after 7 days): 15±0.1%
inhibition of MSC proliferation on coated TCP compared to normal media ([4]; 40% decrease in serum, after 7 days): 25±1%
coating concentration that promoted MSC expansion ([4]; coated on the substratum): ≥ 2 µg/mL
serum reduction at which MSC numbers significantly decreased ([4]; coated surface, until 3 days post-seeding): completely absent
MSC propagation of fibronectin coating relative to tropoelastin coating ([4]; full serum media): equally promoted
stimulation of MSC proliferation above normal media ([4]; in solution in media, up to 7 days): did not trigger any proliferative response
cell spreading on fibronectin (MSCs [5]): 92.5±2.6%

Compound: IGF-1: insulin-like growth factor-1 (Life Technologies), media supplement [reference compound]
MSC numbers compared to normal media ([4]; media supplementation with IGF-1 alone): did not increase MSC numbers
cells expressing CD73 (MSCs [1]): 89.1±0.1%
cells positive for CD105 (MSCs [1]): 83.9±0.7%
